The values that follow come from patent US20070004759A1, “Fungicidal mixtures for controlling rice pathogens” (priority 2004, published 2007).

Each structure is given as a SMILES string.

The test concerns Cochliobolus miyabeanus. Description: Activity against brown spot of rice caused by Cochliobolus miyabeanus, protective application. The class given is in vivo. The settings on record: individual active compound, rice seedlings cultivar Tai-Nong 67, protective spray, evaluated six days after inoculation. As to the method:
The active compounds, separately or jointly, were prepared as a stock solution with 0.25% by weight of active compound in acetone or DMSO. 1% by weight of the emulsifier Uniperol® EL (wetting agent having emulsifying and dispersing action based on ethoxylated alkylphenols) was added to this solution, and the solution was diluted with water to the desired concentration.
Leaves of potted rice seedlings of the cultivar “Tai-Nong 67” were sprayed to runoff point with an aqueous suspension of the concentration of active compound stated below. The next day, the plants were inoculated with an aqueous spore suspension of Cochliobolus miyabeanus. The test plants were then placed in climatized chambers at 22-24° C. and 95-99% relative atmospheric humidity for six days. The extent of the development of the infection on the leaves was then determined visually.
Evaluation is carried out by determining the percentage of infected plants. These percentages were converted into efficacies.
The efficacy (E) is calculated as follows using Abbot's formula: E=(1−α/β)·100
α corresponds to the fungicidal infection of the treated plants in % and
β corresponds to the fungicidal infection of the untreated (control) plants in %
An efficacy of 0 means that the infection level of the treated plants corresponds to that of the untreated control plants; an efficacy of 100 means that the treated plants are not infected.
The expected efficacies of mixtures of active compounds are determined using Colby's formula (Colby, R. S., Weeds, 15, 20-22, 1967) and compared with the observed efficacies.
Colby's formula: E=x+y−x·y/100 • E expected efficacy, expressed in % of the untreated control, when using the mixture of the active compounds A and B at the concentrations a and b • x efficacy, expressed in % of the untreated control, when using the active compound A at the concentration a • y efficacy, expressed in % of the untreated control, when using the active compound B at the concentration b

As for `CC1CCN(c2c(-c3c(F)cccc3Cl)c(Cl)nc3ncnn23)CC1` [A], the “Efficacy in % of the untreated control” value (4 ppm in the spray liquor) is 29% and the “Efficacy in % of the untreated control” value (16 ppm in the spray liquor) was determined as 53%.
The corresponding values for `C[C@H](Nc1c(-c2c(F)cc(F)cc2Cl)c(Cl)nc2ncnn12)C(F)(F)F` [B] are 5% and 41%.
As to `CC1CCN(c2c(-c3c(F)cc(F)cc3F)c(Cl)nc3ncnn23)CC1` [compound I, 5-chloro-7-(4-methylpiperidin-1-yl)-6-(2,4,6-trifluorophenyl)-[1,2,4]triazolo[1,5-a]pyrimidine], the “Efficacy in % of the untreated control” value (4 ppm in the spray liquor) stood at 5% and the “Efficacy in % of the untreated control” value (16 ppm in the spray liquor) was found to be 17%.
Turning to `CC1(C(=O)Nc2ccc(O)c(Cl)c2Cl)CCCCC1` [compound II, N-(2,3-dichloro-4-hydroxyphenyl)-1-methylcyclohexanecarboxamide], the “Efficacy in % of the untreated control” value runs as follows: (4 ppm in the spray liquor) 0%; (16 ppm in the spray liquor) 0%.
